In this assay the test system is Broad 7084-01 inhibitor HTS, set 2. The experiment in a line: single-concentration hits, screen 7084 set 2 (AID 977613).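 Note: host cells are infected with parasite promastigotes that become internalized.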

The source made the active and inactive calls. The rule behind the calls is not given here.

From PubChem BioAssay AID977613 (Broad Institute, 2014) come the findings set out here.

Take `CC(C)NC(=O)N1[C@H](CO)[C@@H](c2ccccc2-c2ccc(F)cc2)[C@@H]1C#N`: the active concentration was > 10 µM (inactive).

Consider `COc1cccc(-c2ccc([C@H]3[C@@H](CO)N4C(=O)CN(C(=O)c5cccnc5)C[C@@H]34)cc2)c1`, for which the active concentration is > 10 µM (inactive).

Regarding `CN(C)C(=O)C[C@@H]1CC[C@H]2[C@@H](COC[C@@H](O)CN2CC2CC2)O1`, the active concentration was > 10 µM (inactive).

`O=C(C[C@H]1CC[C@@H]2[C@H](COC[C@H](O)CN2S(=O)(=O)c2ccccc2)O1)Nc1ccccc1`: the active concentration is > 10 µM (inactive).

With `COCC(=O)N1[C@@H]2CNc3ccccc3[C@@H]2[C@@H]1CO`, the active concentration was > 10 µM (inactive).

With `CN1C(=O)c2cc(NS(C)(=O)=O)ccc2OC[C@H]2O[C@@H](CC(=O)N3CCOCC3)CC[C@@H]21`, the active concentration is > 10 µM (inactive).

As for `O=S(=O)(c1ccc(F)cc1)N1CCCCN2[C@H](C1)[C@@H](c1ccc(-c3cncnc3)cc1)[C@@H]2CO`, the active concentration is > 10 µM (inactive).

For the compound `CC(=O)N1[C@H](C(=O)NCc2ccccc2Cl)[C@@H](CO)[C@@H]2Cn3c(ccc(-c4cncnc4)c3=O)[C@@H]21`, the active concentration was > 10 µM (inactive).

As for `O=C(C[C@H]1CC[C@@H]2[C@H](COC[C@@H](O)CN2S(=O)(=O)c2ccccc2)O1)Nc1ccccc1`, the active concentration is > 10 µM (inactive).

On to `CCS(=O)(=O)N1CC2(CN(Cc3cc(F)ccc3F)[C@H](CO)c3c2c2ccc(OC)cc2n3C)C1`, for which the active concentration is > 10 µM (inactive).

Consider `OC[C@@H]1[C@H]2c3ccccc3NC[C@H]2N1CC1CCOCC1`, for which the active concentration is > 10 µM (inactive).

`O=C(C[C@H]1CC[C@@H]2[C@H](COC[C@H](O)CN2CCC(F)(F)F)O1)NCC1CC1`: the active concentration is > 10 µM (inactive).

`COCC(=O)N1CC2(C1)[C@H](c1ccc(-c3ccc(C)cc3)cc1)[C@@H](CO)N2C(C)=O`: the active concentration is > 10 µM (inactive).

In the case of `COc1ccc2c3c([nH]c2c1)[C@H](CO)N(CC1CC1)CC31CN(C(=O)c2ccc(F)cc2)C1`, the active concentration was > 10 µM (inactive).

Regarding `O=C(c1ccccn1)N1C[C@H]2[C@@H](c3ccccc31)[C@@H](CO)N2C(=O)Nc1ccccc1F`, the active concentration is > 10 µM (inactive).

As to `CCCNC(=O)N1[C@H](CO)[C@H](c2ccccc2-c2ccc(C)cc2)[C@@H]1C#N`, the active concentration was > 10 µM (inactive).

Consider `CN(C)C(=O)C[C@H]1CC[C@@H]2[C@H](COC[C@@H](O)CN2C(=O)C2CC2)O1`, for which the active concentration was > 10 µM (inactive).

As for `O=C(c1ccncc1)N1CC2(C1)[C@@H](c1ccccc1)[C@@H](CO)N2CC1CCOCC1`, the active concentration was > 10 µM (inactive).

As for `O=C(CN1CCOCC1)N1CC(=O)N2[C@H](CO)[C@@H](c3ccc(-c4cccc(F)c4)cc3)[C@@H]2C1`, the active concentration is > 10 µM (inactive).

For the compound `CCCNC(=O)N1[C@H](CO)[C@@H](c2ccccc2C2=CCCCC2)[C@@H]1C#N`, the active concentration was > 10 µM (inactive).

For `CCCC#Cc1ccc([C@@H]2[C@@H](CO)N3CCCCN(CCC)C[C@@H]23)cc1`, the active concentration was > 10 µM (inactive).

On to `CCCNC(=O)N1CC(=O)N2[C@H](CO)[C@H](c3ccc(C#CCC4CCCC4)cc3)[C@@H]2C1`, for which the active concentration was > 10 µM (inactive).

For the compound `CCCNC(=O)N1[C@@H](CO)[C@@H](c2ccccc2)C12CN(C(=O)C1CCCCC1)C2`, the active concentration was > 10 µM (inactive).

On to `CCC(=O)N1CC2(C1)[C@@H](c1ccccc1)[C@@H](CO)N2C(=O)NC(C)C`, for which the active concentration was > 10 µM (inactive).

Regarding `O=C(C[C@H]1CC[C@@H]2[C@H](COC[C@H](O)CN2CCc2ccccc2)O1)NCc1ccc(F)cc1`, the active concentration was > 10 µM (inactive).

In the case of `C/C=C/c1ccc([C@@H]2[C@H](CO)N(C(=O)c3cnccn3)C23CN(C(C)=O)C3)cc1`, the active concentration was > 10 µM (inactive).

Regarding `CN1C(=O)c2cc(NC(=O)c3cnccn3)ccc2OC[C@H]2O[C@H](CC(=O)NCC3CCCCC3)CC[C@@H]21`, the active concentration was > 10 µM (inactive).

For `O=C(Nc1cccc(F)c1)N1C[C@@H]2[C@H](c3ccccc31)[C@@H](CO)N2C(=O)Cc1ccccn1`, the active concentration was > 10 µM (inactive).

With `O=C(C1CCOCC1)N1CC(=O)N2[C@H](C1)[C@H](c1ccc(-c3cccnc3)cc1)[C@@H]2CO`, the active concentration was > 10 µM (inactive).

On to `O=C(C[C@@H]1CC[C@H]2[C@@H](COC[C@@H](O)CN2C(=O)c2ccc(F)cc2)O1)NCc1cccc(F)c1`, for which the active concentration is > 10 µM (inactive).

In the case of `O=C(C[C@@H]1CC[C@H]2[C@@H](COC[C@@H](O)CN2S(=O)(=O)c2ccc(F)cc2)O1)NCC1CC1`, the active concentration is > 10 µM (inactive).

Regarding `COCC#Cc1ccc([C@H]2[C@@H](CO)N3C(=O)CN(C(=O)Nc4ccccc4F)C[C@@H]23)cc1`, the active concentration is > 10 µM (inactive).

For the compound `CN1CCN(C(=O)C[C@@H]2CC[C@H]3[C@@H](COC[C@@H](O)CN3C(=O)C3CC3)O2)CC1`, the active concentration is > 10 µM (inactive).

Take `COC(=O)[C@@H]1[C@@H](CO)[C@@H]2Cn3c(cccc3=O)[C@H]1N2Cc1nccs1`: the active concentration was > 10 µM (inactive).

Turning to `CCCNC(=O)N1[C@H](C#N)[C@H](c2ccccc2-c2ccc(C)cc2)[C@@H]1CO`, the active concentration is > 10 µM (inactive).

Turning to `O=C(NC1CCCCC1)N1CC2(C1)[C@H](c1ccccc1)[C@H](CO)N2CC1CCCC1`, the active concentration was > 10 µM (inactive).

For the compound `CS(=O)(=O)N1CC2(C1)[C@@H](c1ccccc1)[C@@H](CO)N2Cc1ccccn1`, the active concentration is > 10 µM (inactive).

As to `COc1ccc(C#Cc2ccc([C@H]3[C@@H](CO)N4C(=O)CN(C(=O)c5ccc(F)cc5)C[C@H]34)cc2)cc1`, the active concentration was > 10 µM (inactive).

Turning to `C/C=C/c1ccc([C@@H]2[C@H](CO)N3CCCCN(S(=O)(=O)c4ccc(OC)cc4)C[C@@H]23)cc1`, the active concentration is > 10 µM (inactive).

With `O=C(C[C@H]1CC[C@H]2[C@@H](COC[C@@H](O)CN2S(=O)(=O)c2cccc(F)c2)O1)Nc1ccc(-c2ccccc2)cc1`, the active concentration was > 10 µM (inactive).

As for `O=C(C[C@@H]1CC[C@H]2[C@@H](COC[C@@H](O)CN2C(=O)Nc2ccc(Cl)c(Cl)c2)O1)NCc1ccc(Cl)cc1`, the active concentration is > 10 µM (inactive).

Consider `COc1cccc(C(=O)N2C[C@H]3[C@@H](c4ccccc42)[C@H](CO)N3Cc2ccccc2Cl)c1`, for which the active concentration was < 10 µM.

In the case of `CCC(=O)N1CC2(CN(C(C)=O)C2)c2c([nH]c3cc(OC)ccc23)[C@@H]1CO`, the active concentration was > 10 µM (inactive).

Take `CCS(=O)(=O)Nc1ccc2c(c1)C(=O)N(C)[C@@H]1CC[C@H](CC(=O)N[C@H]3CCN(Cc4ccccc4)C3)O[C@H]1CO2`: the active concentration is > 10 µM (inactive).

In the case of `O=C(c1ccccc1)N1CC(=O)N2[C@H](C1)[C@@H](c1ccc(-c3ccccc3)cc1)[C@@H]2CO`, the active concentration is > 10 µM (inactive).

As to `CN1c2ccc(C3=CCCCC3)cc2[C@H]2[C@H](CCN2C(=O)C2CCCC2)[C@@H]1CO`, the active concentration is > 10 µM (inactive).

Consider `CCNC(=O)C[C@@H]1CC[C@H]2[C@@H](COC[C@@H](O)CN2C(=O)C2CC2)O1`, for which the active concentration is > 10 µM (inactive).

In the case of `O=C([C@@H]1N[C@@H]2c3ccc(-c4ccccc4F)c(=O)n3C[C@@H]2[C@H]1CO)N1CCc2ccccc2C1`, the active concentration is > 10 µM (inactive).

Regarding `CCS(=O)(=O)Nc1ccc2c(c1)C(=O)N(C)[C@@H]1CC[C@H](CC(=O)NCCOC)O[C@H]1CO2`, the active concentration is > 10 µM (inactive).

Take `COc1ccc(NC(=O)N2CC(=O)N3[C@H](CO)[C@H](c4ccc(Br)cc4)[C@@H]3C2)cc1`: the active concentration was > 10 µM (inactive).

For `COc1ccc2c3c([nH]c2c1)[C@@H](CO)N(S(C)(=O)=O)CC31CN(CC2CCOCC2)C1`, the active concentration was > 10 µM (inactive).

Turning to `COc1ccccc1-c1ccccc1[C@@H]1[C@@H](C#N)N(C(=O)C2CCOCC2)[C@H]1CO`, the active concentration was > 10 µM (inactive).

Regarding `CN1C(=O)c2cc(NS(C)(=O)=O)ccc2OC[C@@H]2O[C@@H](CC(=O)NC3CCCCC3)CC[C@H]21`, the active concentration is > 10 µM (inactive).

`COc1ccc2c3c(n(C)c2c1)[C@@H](CO)N(C(=O)C1CC1)CC31CCN(Cc2cccc(F)c2)CC1`: the active concentration is > 10 µM (inactive).

For the compound `C[C@@H](O)C#Cc1ccc([C@@H]2[C@H](CO)N3CCCCN(C(=O)c4ccc5c(c4)OCO5)C[C@@H]23)cc1`, the active concentration was > 10 µM (inactive).

For `C/C=C/c1ccc([C@H]2[C@@H](CO)N3C(=O)CN(S(=O)(=O)c4ccccc4)C[C@@H]23)cc1`, the active concentration is > 10 µM (inactive).

Turning to `N#C[C@@H]1[C@H](c2ccccc2-c2ccc(F)cc2)[C@H](CO)N1C(=O)Cc1cccnc1`, the active concentration is > 10 µM (inactive).

Take `COc1ccc2c3c([nH]c2c1)[C@@H](CO)N(C(=O)Nc1ccc(F)cc1)CC31CN(Cc2cc(-c3ccccc3)on2)C1`: the active concentration was > 10 µM (inactive).

In the case of `O=C(c1cccc(F)c1)N1CCCCN2[C@H](CO)[C@@H](c3ccc(C#CC4(O)CCCC4)cc3)[C@H]2C1`, the active concentration was > 10 µM (inactive).

As for `COCC#Cc1ccc([C@@H]2[C@H]3CN(C(=O)Nc4ccccc4F)CC(=O)N3[C@H]2CO)cc1`, the active concentration is > 10 µM (inactive).

As to `O=C(c1cccc(F)c1)N1C[C@@H]2[C@H](c3ccccc31)[C@H](CO)N2C(=O)C1CCOCC1`, the active concentration is > 10 µM (inactive).

Take `O=C(Nc1cccc(F)c1)N1C[C@@H]2[C@H](c3ccccc31)[C@H](CO)N2C(=O)Cc1ccccn1`: the active concentration is > 10 µM (inactive).

Regarding `N#C[C@H]1[C@H](c2ccccc2-c2ccccc2F)[C@@H](CO)N1C(=O)Cc1ccccc1`, the active concentration was > 10 µM (inactive).

Take `O=S(=O)(c1ccccc1)N1CC[C@@H]2[C@H]1c1cc(Br)ccc1N[C@@H]2CO`: the active concentration was > 10 µM (inactive).

Regarding `O=C(C[C@H]1CC[C@@H]2[C@H](COC[C@@H](O)CN2S(=O)(=O)c2cccc(Cl)c2)O1)Nc1ccc(-c2ccccc2)cc1`, the active concentration was > 10 µM (inactive).
